Reference: the NIST ThermoML archive (doi:10.1016/j.tca.2007.07.002)

Experiment: mn = molality of the nth substance listed, in mol/kg
Details: 298.15 K, 101 kPa, Liquid, Vibrating tube method

CCCC(N)=O [butanamide] + O
Details	mass density [kg/m3]
m1 = 0.2015	997.019
m1 = 0.3122	997.028
m1 = 0.4106	997.052
m1 = 0.5053	997.083
m1 = 0.628	997.117
m1 = 0.7131	997.16
m1 = 0.827	997.21
m1 = 0.9204	997.269
